The values below come from patent publication US4521419A, “Condensed cycloaliphatic derivatives of substituted pyrido[1,2-a]pyrimidines and methods of treating allergic conditions, peptic ulcers and inhibiting gastric acid secretion with them” (Farmitalia Carlo Erba S.p.A., priority 1982, dated 1985).

Some results are limits rather than exact numbers.

Data set [1] has as its system gastric secretion in rats. Description: inhibition of gastric secretion in rats (H. Shay et al.). The settings on record: rat, intraduodenal administration; read-out: antisecretory activity, approximate ED25. Type of data set: in vivo. On the procedure: (§1) One of the preferred compounds of the invention having antisecretory activity is, for example, the compound 3-(2-methyl-benzylidene)-1,2,3,10-tetrahydro-10-oxo-10H-cyclopenta[d]pyrido[1,2-a]pyrimidine-7-carboxylic acid, which has an approximate ED25 value of 10 mg/kg in the above test in the rat, after intraduodenal administration. In view of their high therapeutic index the compounds of the invention can be safely used in medicine. For example, the approximate acute toxicity (LD50) of the compounds 3-benzylidene-1,2,3,10-tetrahydro-10-oxo-cyclopenta[d]pyrido[1,2-a]pyrimidine-7-carboxylic acid, 3-(2-methyl-benzylidene)-1,2,3,10-tetrahydro-10-oxo-10H-cyclopenta[d]pyrido[1,2-a]pyrimidine-7-carboxylic acid and 4-benzylidene-1,2,3,4-tetrahydro-11-oxo-11H-pyrido[2,1-b]quinazoline-8-carboxylic acid, in the mouse, determined with single administration of increasing doses and measured on the seventh day after the day of treatment, is per os higher than 800 mg/kg. Analogous toxicity data have been found for the other compounds of the invention.

Data set [2] is described as follows: acute toxicity (LD50) in the mouse. Particulars: in vivo, po, per os, single administration of increasing doses, measured on the seventh day after treatment, read-out: approximate acute toxicity (LD50). As for the experimental part:
as §1

Another data set has as its system restraint ulcers in rats. Kind of data set: inhibition of restraint ulcers in rats (Bonfils et al.). The class given is in vivo. The settings on record: po, 1 h; rat, per os one hour before immobilization; approximate value; read-out: Anti-ulcerogenic activity ED50. On the procedure:
(§2) For example, in the above test in the rat the compound FCE 21273 gives about a 30% inhibition of RPAR reaction when administered orally at a dosage of 100 mg/kg. The compounds of the present invention, furthermore, are active on the gastroenterical system, in particular they are endowed with anti-ulcerogenic and anti-secretory activity and are therefore useful in therapy, for example, in the prevention and treatment of peptic, e.g., duodenal, gastric and esophageal, ulcers and to inhibit gastric acid secretion. The anti-ulcerogenic activity of the compounds of the invention is shown, e.g., by the fact that they are active in the test of inhibition of restraint ulcers in rats, according to the method of Bonfils et al. (Therapie, 1960, 15, 1096; Jap. J.Pharmac. 1968, 18, 9).
The tested compound was administered per os (p.o.) one hour before the immobilization.
Six Sprague-Dawley male rats (100-120 g) fasted 24 hours were used for the experiment: a square flexible small-mesh wire netting was used for the immobilization and 4 hours after the immobilization the rats were sacrificed, their stomachs were removed and the lesions counted under a dissecting microscope.

The next data set relates to rat peritoneal cells. Kind of data set: A 23187 induced SRS production from rat peritoneal cells. Particulars: in vitro, FCE 21273 at 1 mcg/ml. The class given is cell-based. The text has this: (1) test of A 23187 induced SRS production from rat peritoneal cells, according to M. K. Bach and J. R. Brashler (J. Immunol., 113, 2040, 1974);
In the next data set the test system is chopped guinea-pig lung. Description: antigen induced SRS production from chopped guinea-pig lung. The class given is cell-based. Particulars: Cavia porcellus, in vitro, FCE 21273 at 10 mcg/ml. The text has this: (2) test of antigen induced SRS production from chopped guinea-pig lung, according to W. E. Brocklehurst (J. Physiol., 151, 416, 1960); and in vivo

The subject of data set [3] is Reversed Passive Arthus Reaction (RPAR). Description: Reversed Passive Arthus Reaction (RPAR) in the rat. Type of data set: in vivo. The settings on record: administered orally at 100 mg/kg.
From the text: Furthermore the compounds of this invention are effective in vivo, for example, in inhibiting the Reversed Passive Arthus Reaction (RPAR) which is a model of immune-complex induced inflammatory reaction initiated by the interaction of antigen and antibody resulting in the formation of precipitating immune-complex, followed by complement fixation and accumulation of PMN in the focal site (D. K. Gemmell, J. Cottney and A. J. Lewis, Agents and Actions 9/1 page 107, 1979).
as §2

What is called LD50 is the dose at which mortality reaches 50%. Turning to `Cc1ccccc1C=C1CCc2c1nc1ccc(C(=O)O)cn1c2=O` [3-(2-methyl-benzylidene)-1,2,3,10-tetrahydro-10-oxo-cyclopenta[d]pyrido[1,2-a]pyrimidine-7-carboxylic acid], in data set [1], the ED25 was approximately 10 mg/kg. Also, the LD50 at 168 h in data set [2] was more than 800 mg/kg.
As usually defined, the ED50 is the midpoint of the dose-response relation. As for `O=C(O)c1ccc2nc3c(c(=O)n2c1)CCC3=Cc1ccccc1` [3-benzylidene-1,2,3,10-tetrahydro-10-oxo-cyclopenta[d]pyrido[1,2-a]pyrimidine-7-carboxylic acid], the LD50 at 168 h in data set [2] was more than 800 mg/kg. In addition, in the data set on restraint ulcers in rats, the ED50 worked out at 12 mg/kg.
A word on the inhibition: it is the relative decrease from the control value, in per cent. Low values mean little suppression, high ones strong suppression. On to `O=C(O)c1ccc2nc3c(c(=O)n2c1)CCCC3=Cc1ccccc1` [FCE 21273, 4-benzylidene-1,2,3,4-tetrahydro-11-oxo-11H-pyrido[2,1-b]quinazoline-8-carboxylic acid], for which the LD50 at 168 h in data set [2] is more than 800 mg/kg. In the data set with rat peritoneal cells, this compound displayed an inhibition at 1 µg/mL of 50%. In the data set on chopped guinea-pig lung, this compound came in with an inhibition at 10 µg/mL of 47%. In addition, the “inhibition of RPAR reaction” value in data set [3] is approximately 30%.
